Results as given in patent US20070197509A1, “Compositions and methods for modulating gated ion channels” (PainCeptor Pharma Corporation, priority 2005, published 2007).

Tests used:
[1] = test system: T1, hASIC3 (h3) and/or hASIC1a (h1a); assay: FlexStation/FLIPR assay, channel not marked in the cell; format: cell-based, human; settings: Table H, cells without channel mark; HEK293; read-out: EC50 (μM) Flex/FLIPR
T1 construct: EC50 (μM) in one experiment; HEK293
Excerpt: (§1) The MES-induced peak calcium response (or change in membrane potential), in the presence of test substance, is expressed relative to the MES response alone. Test substances that block the MES-induced calcium response (or change in membrane potential) are re-tested in triplicates. Confirmed hits are picked for further characterization by performing full dose-response curves to determine potency of each hit compound as represented by the IC50 values (i.e., the concentration of the test substance which inhibits 50% of the MES-induced calcium and/or membrane potentiation response; see, for example, FIG. 1).
(§2) The data shown in Table H was acquired using the FlexStation assay described in Example 1 on HEK293 cells expressing hASIC3 (h3) and/or hASIC1a (h1a).

[2] = biological target: T2, hASIC3 (Homo sapiens, UniProt Q9UHC3); assay: FlexStation assay on HEK293 cells expressing hASIC3; format: cell-based; parameters: expressed in transfected cells; host or cells: HEK293 cells; settings: for EC50: Table H, cells marked (h3), HEK293, read-out: EC50 (μM) Flex/FLIPR (h3); for IC50: FlexStation (Flex), Tables A-F, read-out: Biological Data (IC50 uM) h3 (Flex)
T2 sequence (Q9UHC3 1-531): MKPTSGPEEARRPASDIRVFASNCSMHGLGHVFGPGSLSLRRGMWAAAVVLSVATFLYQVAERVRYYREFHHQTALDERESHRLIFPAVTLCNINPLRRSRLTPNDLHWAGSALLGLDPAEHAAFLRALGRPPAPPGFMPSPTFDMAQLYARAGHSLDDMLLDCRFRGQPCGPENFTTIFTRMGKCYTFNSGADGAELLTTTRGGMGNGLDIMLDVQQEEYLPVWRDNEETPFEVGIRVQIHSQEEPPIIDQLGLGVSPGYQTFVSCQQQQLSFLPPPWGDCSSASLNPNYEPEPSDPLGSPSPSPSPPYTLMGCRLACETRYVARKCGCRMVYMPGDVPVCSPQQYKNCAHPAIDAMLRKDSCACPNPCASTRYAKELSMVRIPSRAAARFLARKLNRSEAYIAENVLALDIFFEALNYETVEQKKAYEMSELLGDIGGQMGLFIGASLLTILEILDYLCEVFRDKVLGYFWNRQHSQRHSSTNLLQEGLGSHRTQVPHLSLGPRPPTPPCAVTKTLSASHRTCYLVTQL
Description: A vial of FMP dye (Molecular Devices) is resuspended in 10.5 ml of assay buffer (48.3 mM NaCl, 93 mM NMDG, 5 mM KCl, 5 mM CaCl2, 1 mM MgCl2, 10 mM HEPES, pH 7.4). The culture medium is aspirated from the wells, and 100 μl of the FMP loading solution is added to each well. The cells are incubated at 37° C. for 30 min.
After the loading period, the loading solution is left on the cells and the membrane potential-induced fluorescence is measured in FLIPR™ or FlexStation™ (Molecular Devices, USA), or any other suitable equipment known to the skilled in the art.
For cells co-expressing ASIC1a and ASIC3 channels (e.g. HEK293 cells), membrane potential dye (FMP dye) is used and the FlexStation settings are as above.
as §1, §2

[3] = biological target: T3, hASIC1a (Homo sapiens, UniProt P78348); assay: Two-electrode voltage clamp in Xenopus laevis oocytes expressing hASIC1a (OpusExpress); format: cell-based; parameters: expressed in transfected cells; host or cells: Xenopus laevis oocytes, nuclear microinjection of cDNA (e.g. in pCDNA3)
T3 sequence (P78348 1-528): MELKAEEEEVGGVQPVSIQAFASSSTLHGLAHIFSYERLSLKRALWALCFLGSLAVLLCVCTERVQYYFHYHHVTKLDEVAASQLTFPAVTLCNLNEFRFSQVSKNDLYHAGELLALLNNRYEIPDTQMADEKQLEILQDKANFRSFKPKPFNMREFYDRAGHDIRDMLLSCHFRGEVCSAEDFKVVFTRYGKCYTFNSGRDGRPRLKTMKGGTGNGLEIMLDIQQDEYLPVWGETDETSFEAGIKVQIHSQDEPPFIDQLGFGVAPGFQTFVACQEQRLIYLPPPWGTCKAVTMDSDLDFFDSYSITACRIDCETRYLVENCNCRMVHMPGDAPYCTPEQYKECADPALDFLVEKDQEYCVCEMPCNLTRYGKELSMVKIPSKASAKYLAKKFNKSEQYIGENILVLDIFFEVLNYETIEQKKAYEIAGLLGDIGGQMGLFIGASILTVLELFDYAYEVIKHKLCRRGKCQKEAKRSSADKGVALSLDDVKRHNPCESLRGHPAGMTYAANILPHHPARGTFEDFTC
Description: Two-electrode voltage clamp electrophysiological assays in Xenopus laevis oocytes expressing gated ion channels are performed as follows:
Oocytes are surgically removed from adult Xenopus laevis and treated for 2 h at room temperature with 1 mg/ml type I collagenase (Sigma) in Barth's solution under mild agitation. Selected oocytes at stage IV-V are defolliculated manually before nuclear microinjection of 2.5-5 ng of a suitable expression vector, such as pCDNA3, comprising the nucleotide sequence encoding a gated ion channel subunit protein. In such an experiment, the oocytes express homomultimeric proton-gated ion channels on their surface. In an alternate experiment, one, two, three or more vectors comprising the coding sequences for distinct gated ion channel subunits are co-injected in the oocyte nuclei. In the latter case, oocytes express heteromultimeric proton-gated ion channels. […] Once impaled with the microelectrodes, oocytes are continuously superfused at 10-12 ml/min with a modified Ringer's solution containing 97 mM NaCl, 2 mM KCl, 1.8 mM CaCl2, and 10 mM HEPES brought to pH 7.4 with NaOH (Control Ringer). Test Ringer solution is prepared by replacing HEPES with MES and adjusting the pH to the desired acidic value. Compounds of the present invention are prepared in both the Control and Test Ringer solutions and applied to oocytes at room temperature through a computer-controlled switching valve system. […] Similarly, recordings can also be acquired in an automated multichannel oocytes system as the OpusExpress™ (Molecular Devices, Sunnyvale, Calif., USA).
Recordings were acquired from oocytes expressing homomeric hASIC1a using a two-electrode voltage-clamp configuration procedure as described herein.

[4] = biological target: T3, hASIC1a; assay: Whole-cell patch clamp of acid-induced currents in cells transfected with hASIC1a; format: cell-based; parameters: expressed in transfected cells; settings: patch clamp (PC), Tables A-F, h1a printed in some cells only
Description: Another example of an in vitro assessment method consists of using mammalian heterologous expression systems, which are known to those skilled in the art, and include a variety of mammalian cell lines such as COS, HEK, e.g., HEK293 and/or CHO, cells. Cell lines are transfected with gated ion channel(s) and used to perform electrophysiology as follows:
All experiments are performed at room temperature (20-25° C.) in voltage clamp using conventional whole cell patch clamp methods (Neher, E., et al. (1978) Pfluegers Arch 375:219-228).
The amplifier used is the EPC-9 (HEKA-electronics, Lambrect, Germany) run by a Macintosh G3 computer via an ITC-16 interface. Experimental conditions are set with the Pulse-software accompanying the amplifier. Data is low pass filtered and sampled directly to hard-disk at a rate of 3 times the cut-off frequency.
Pipettes are pulled from borosilicate glass using a horizontal electrode puller (Zeitz-lnstrumente, Augsburg, Germany). The pipette resistances are 2-3 MOhms in the salt solutions used in these experiments. The pipette electrode is a chloridized silver wire, and the reference is a silver chloride pellet electrode (In Vivo Metric, Healdsburg, USA) fixed to the experimental chamber. The electrodes are zeroed with the open pipette in the bath just prior to sealing.
Coverslips with the cells are transferred to a 15 μl experimental chamber mounted on the stage of an inverted microscope (IMT-2, Olympus) supplied with Nomarski optics. Cells are continuously superfused with extracellular saline at a rate of 2.5 ml/min. After giga-seal formation, the whole cell configuration is attained by suction. The cells are held at a holding voltage of −60 mV and at the start of each experiment the current is continuously measured for 45 s to ensure a stable baseline. Solutions of low pH (<7) are delivered to the chamber through a custom-made gravity-driven flowpipe, the tip of which is placed approximately 50 μm from the cell. Application is triggered when the tubing connected to the flowpipe is compressed by a valve controlled by the Pulse-software. Initially, low pH (in general, pH 6.5) is applied for 5 s every 60 s. The sample interval during application is 550 μs. After stable responses are obtained, the extracellular saline as well as the low-pH solution are switched to solutions containing the compound to be tested. The compound is present until responses of repeatable amplitude are achieved. Current amplitudes are measured at the peak of the responses, and effect of the compounds is calculated as the amplitude at compound equilibrium divided by the amplitude of the current evoked by the pulse just before the compound was included.
The following salt solutions are used: extracellular solution (mM): NaCl (140), KCl (4), CaCl2 (2), MgCl2 (4), HEPES (10, pH 7.4); intracellular solution (mM): KCl (120), KOH (31), MgCl2 (1.785), EGTA (10), HEPES (10, pH 7.2). In general, compounds for testing are dissolved in 50% DMSO at 500 fold the highest concentration used.
CHO cells were transfected with hASIC1a and used to perform full dose-inhibition curves with Compound B, and Compound R. Results are expressed as a fraction of the control peak current obtained in the absence of the test substance.

[5] = OpusExpress (OX), Tables A-F, h1a printed in some cells only
[6] = OpusExpress (OX), Tables A-F, h1a printed in some cells only, read-out: Biological Data (IC50 uM) h1a (OX)
[7] = Table H, read-out: IC50 (μM) Opus Express (h1a)

COc1ccc(-c2cc(C(=O)N3CCN(C)CC3)c3ccccc3n2)cc1OC [Compound G, [2-(3,4-dimethoxy-phenyl)-quinolin-4-yl]-(4-methyl-piperazin-1-yl)-methanone]
EC50 [1]: > 20 µM

Cc1cc(N2CCN(C(=O)OCc3ccccc3)CC2)c2ccccc2n1 [Compound N, 4-(2-methyl-quinolin-4-yl)-piperazine-1-carboxylic acid benzyl ester]
EC50 [2]: > 20 µM | IC50 (μM) Opus Express (h1a) ([3]; Table H): Inactive

COc1ccc(N2CCN(C(=O)c3cc(-c4ccc(OC)c(OC)c4)nc4ccccc34)CC2)cc1 [Compound 41, [2-(3,4-dimethoxy-phenyl)-quinolin-4-yl]-[4-(4-methoxy-phenyl)-piperazin-1-yl]-methanone]
Biological Data (IC50 uM) h1a (PC) [4]: Not Active (OX, PC) | Biological Data (IC50 uM) h1a (OX) [3, 5]: Not Active (OX, PC)

FC(F)(F)c1ccc2c(OC3CCN(Cc4ccccc4)CC3)ccnc2c1 [Compound S, 4-(1-benzyl-piperidin-4-yloxy)-7-trifluoromethyl-quinoline]
IC50 [2]: 25 to 35 µM | EC50 [2]: > 20 µM

Cc1cc(N2CCNCC2)c2ccccc2n1 [Compound M, 2-methyl-4-piperazin-1-yl-quinoline]
IC50 [2]: 5 to 15 µM | EC50 [2]: > 10 µM | Biological Data (IC50 uM) h1a (OX) [3, 5]: inactive | IC50 (μM) Opus Express (h1a) ([3]; Table H): Inactive

Cc1cc(N2CCN(CCc3ccccc3)CC2)c2ccccc2n1 [Compound D, 2-methyl-4-(4-phenethyl-piperazin-1-yl)-quinoline]
EC50 [1]: < 10 µM | IC50 [3, 6]: > 50 µM | IC50 [3, 7]: > 50 µM

COc1ccc(-c2cc(C(=O)O)c3cc(Cl)ccc3n2)c(O)c1 [Compound 37, 6-chloro-2-(2-hydroxy-4-methoxy-phenyl)-acid]
IC50 [2]: 10 to 20 µM

COc1ccc(CN2CCN(c3cc(C)nc4ccccc34)CC2)cc1 [Compound Q, 4-[4-(4-methoxy-benzyl)-piperazin-1-yl]-2-methyl-quinoline]
EC50 [1]: < 10 µM | IC50 [2]: 10 to 20 µM | IC50 [3, 7]: > 50 µM

COc1ccc(-c2cc(C(=O)N3CCN(Cc4ccc5c(c4)OCO5)CC3)c3cc(Cl)ccc3n2)cc1 [Compound 44, (4-benzo[1,3]dioxol-5-ylmethyl-piperazin-1-yl)-[6-chloro-2-(4-methoxy-phenyl)-quinolin-4-yl]-methanone]
Biological Data (IC50 uM) h1a (PC) [4]: Not Active (OX, PC) | Biological Data (IC50 uM) h1a (OX) [3, 5]: Not Active (OX, PC)

Cc1ccc(-c2nc(Nc3cccc(C(=O)O)c3)c3ccccc3n2)cc1 [Compound T, 3-(2-p-tolyl-quinazolin-4-ylamino)-benzoic acid]
EC50 [2]: > 20 µM

CN1CCN(c2nc(-c3ccccc3F)nc3ccccc23)CC1 [Compound L, 2-(2-fluoro-phenyl)-4-(4-methyl-piperazin-1-yl)-quinazoline]
IC50 [2]: 5 to 15 µM | EC50 [2]: > 10 µM

Cc1cc(N2CCN(Cc3ccc4c(c3)OCO4)CC2)c2ccccc2n1 [Compound P]
IC50 [2]: 10 to 20 µM | EC50 [2]: > 10 µM | IC50 [3, 7]: > 50 µM

Cc1ccc(-c2nc(Nc3ccc(C(=O)O)cc3)c3cc(Cl)ccc3n2)cc1 [Compound 107, 4-(6-chloro-2-p-tolyl-quinazolin-4-ylamino)-benzoic acid]
IC50 ([4]; read-out: Biological Data (IC50 uM) h1a (PC)): > 30 µM | IC50 [2]: 20 to 30 µM

O=C(O)c1cc(-c2ccc(Cl)cc2)nc2ccc(Cl)cc12 [Compound 36, 6-chloro-2-(4-chloro-phenyl)-quinoline-4-carboxylic acid]
IC50 [2]: 15 to 25 µM | IC50 [3, 6]: > 50 µM
